In article PMC4226669, “Anti-cancer potency of tasquinimod is enhanced via albumin-binding facilitating increased uptake in the tumor microenvironment” (Oncotarget, 2014):
Like-named read-outs stand apart in the source and are kept apart here.

How the values were obtained:
[1] = Protein binding fraction (PBF) in bovine fetal serum; type: in vitro ADME; conditions: bovine fetal serum (FBS), 1-50 μM radiolabeled tasquinimod
Experimental: (§1) An explanation for this highly restricted cellular uptake in the blood is provided by the fact that protein binding fraction (PBF) for tasquinimod in nude mouse plasma is 98 ± 1%. This is not a nude mouse specific effect since incubation of 1-50 μM radiolabeled tasquinimod with human plasma or bovine fetal serum (FBS) results in a PBF of ~ 98%.
(§2) Mice were orally gavaged with ^14C-labeled tasquinimod at a dose of 5mg/kg and 1 hour later blood collected and plasma isolated and the PBF determined as described previously using Centrifree® YM-30 centrifuge filter unit with a molecular weight cutoff of 30K (i.e., Millipore, Billerica,MO).

[2] = test system: metastatic, castrate resistant prostate cancer; set-up: method as in PMID 21931019, PMID 24255071; conditions: vs placebo; cited from earlier work
[3] = molecular target: T1, human albumin (Homo sapiens, UniProt P02768); experiment: Equilibrium dialysis binding to human albumin; conditions: pH 7.4, equilibrium dialysis, read-out: equilibrium dissociation constant (Kd)
T1 construct: purchased Sigma
T1 sequence (P02768 25-609): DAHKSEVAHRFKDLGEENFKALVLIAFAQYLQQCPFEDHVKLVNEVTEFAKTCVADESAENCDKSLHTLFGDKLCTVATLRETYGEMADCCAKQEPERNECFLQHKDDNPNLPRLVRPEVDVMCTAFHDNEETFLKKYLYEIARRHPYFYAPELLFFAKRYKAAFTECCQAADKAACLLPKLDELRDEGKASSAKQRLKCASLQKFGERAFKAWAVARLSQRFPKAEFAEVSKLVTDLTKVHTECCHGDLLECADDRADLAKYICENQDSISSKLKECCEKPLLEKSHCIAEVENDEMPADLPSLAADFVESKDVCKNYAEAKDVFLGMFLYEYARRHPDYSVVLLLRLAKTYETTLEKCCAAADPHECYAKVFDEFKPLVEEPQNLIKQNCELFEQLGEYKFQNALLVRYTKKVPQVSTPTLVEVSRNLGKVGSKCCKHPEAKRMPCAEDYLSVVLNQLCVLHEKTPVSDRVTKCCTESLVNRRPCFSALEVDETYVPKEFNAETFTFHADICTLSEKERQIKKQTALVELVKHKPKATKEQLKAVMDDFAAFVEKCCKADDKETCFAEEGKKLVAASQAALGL
Experimental: To determine whether albumin is the tasquinimod binding protein in plasma, albumin was removed from human plasma using an albumin depletion kit (Thermo Scientific cat # 85160). The albumin depleted plasma was then tested for its protein binding as described above. The dissociation constant (kd) for tasquinimod binding was determined based upon equilibrium dialysis of a mixture of 4mg/ml of the species (i.e., human, bovine, and mouse) specific albumin obtained from Sigma with 2μM of ^14C-labeled tasquinimod in PBS pH 7.4 buffer using a 96-well equilibrium dialyzer™ (Harvard Apparatus, Holliston,MA).

[4] = Nadir plasma concentration after 5 days oral dosing in C57Bl/6J mice; type: in vivo, mouse; conditions: 5 mg/kg/day oral gavage, end of 5 days
Experimental: To determine whether this chronic 5 mg/kg/day oral dosing regimen produces similar blood concentrations in mice as obtained in human trials, intact adult male C57Bl/6J mice (n=4) were given ^14C- radiolabeled tasquinimod via oral gavage and then the plasma concentration of drug at the end of 5 days determined based upon radioactivity levels.

[5] = Protein binding fraction (PBF) in human plasma; type: in vitro ADME; conditions: 1-50 μM radiolabeled tasquinimod
Experimental: as §1, §2

[6] = Tissue distribution and metabolites in nude mice bearing CWR-22Rv1 cancers; type: in vivo, mouse; conditions: for concentration at 4 h: male, nude, mouse
Experimental: To determine the concentration of metabolites, nude mice bearing CWR-22Rv1 prostate cancers were orally administered with 5 mg/kg of ^14C- radiolabeled tasquinimod and 4 and 24 hours later, blood plasma and liver, kidney, and cancer tissue harvested and analyzed for determination of metabolites. […] The predominant metabolite is the O-demethylated quinoline compound, Figure 2A&B, but the concentration of the hydroxylated aromatic quinoline and the N-demethylated quinoline compounds, along with the O-demethylated quinoline compound are also higher in the liver than the blood at the time point studied, Figure 2B. Also in the kidney 40% of the drug is present as metabolites, with the concentration of the hydroxylated aromatic quinoline and the O-demethylated quinoline compounds being higher than in the blood, Figure 2B. In contrast, within the cancer > 80% of the total concentration of drug is present as parent tasquinimod, Figure 2B. Only the O-demethylated quinoline compound is present at a higher concentration in the cancer than blood, Figure 2B. The plasma concentration of total metabolites is < 10% at 4 hours, Figure 2B, and 24 hours post oral dosing with 5 mg/kg, Figure 2A.
Male nude mice bearing 200-300mm^3 CWR-22Rv1 cancers were given ^14C-labeled tasquinimod at a dose of 5 mg/kg via oral gavage. At times ranging from 30 min to 24 hour, groups of 4-6 mice were anaesthetized with ketamine and 1 ml of heparinized blood collected by cardiac puncture, followed by subsequent cardiac perfusion of saline to remove blood associated drug. An aliquot of liver, kidney, and cancer was removed, weighed and then homogenized. The radioactivity in 10 μL aliquots of tissue homogenates and blood plasma was determined using a liquid scintillation counter and used to calculate the total amount of tasquinimod plus its metabolites per gram of tissue or per ml of blood. The remaining sample volume was deproteinated with acetonitrile and the radioactivity of an aliquot of the supernatant determined and the remaining supernatant lyophilized, resuspended initially with 0.1mL dimethyl sulfoxide and diluted by the addition of 0.9mL deionized water prior to injection into the HPLC. The HPLC system consisted of Waters pumps using a Waters gradient controller to deliver mobile phase at a flow rate of 1mL per minute using a Supelcosil ABZ+ C18 column that is 150mm long by 4.6mm diameter and has 5μm particle size. The metabolites were separated using a linear gradient in which the starting mobile phase was 35% acetonitrile: 65% water: 0.1% Trifluoroacetic acid (TFA) increasing to 50% acetonitrile: 50% water: 0.1%TFA over 25 minutes, and then increased rapidly to 98% acetonitrile: 2% water: 0.1%TFA and held until 33 minutes before it is returned to the initial conditions for the next run. Fractions were collected and the radioactivity determined by scintillation counting. As controls, the individual elution time of non-radiolabeled standard solutions of the various tasquinimod metabolites was determined using UV absorption at 215nm. The results were expressed as concentration based upon tissue volume, assuming 1gram wet weight equals 1ml, or normalized to tissue vascular volume.

fraction unbound [1]: ~0.02
Kd [3]: 24 ± 4 µM
nadir plasma concentration [4]: 1.08 ± 0.21 µM
fraction unbound [5]: ~0.02
prostate cancer tissue concentration relative to liver or kidney, normalized to percent vascular volume ([6]; 5 mg/kg oral): 3-5 fold
time to maximum total drug concentration in liver, kidney and cancer ([6]; 5 mg/kg oral, CWR-22Rv1 tumor bearing mice): ≤ 5 h
total drug within the cancer present as parent tasquinimod ([6]; CWR-22Rv1 cancer, 4 hours post 5 mg/kg oral): > 80%
percentage of total drug in CWR-22Rv1 cancer ([6]; CWR-22Rv1 cancer, 4 hours post oral 5mg/kg tasquinimod): 83+/-6%
percentage of total drug in kidney ([6]; kidney, 4 hours post oral 5mg/kg tasquinimod): 60+/-7%
percentage of total drug in liver ([6]; liver, 4 hours post oral 5mg/kg tasquinimod): 29+/-5%
concentration at 4 h ([6]; CWR-22Rv1 cancer tissue, CWR-22Rv1 cancer, 4 hours post oral 5mg/kg tasquinimod, 1gm tissue = 1ml, read-out: concentration in CWR-22Rv1 cancer): 2.24 µM
concentration at 4 h ([6]; kidney, 4 hours post oral 5mg/kg tasquinimod, 1gm tissue = 1ml, read-out: concentration in kidney): 2.3 µM
concentration at 4 h ([6]; liver, 4 hours post oral 5mg/kg tasquinimod, 1gm tissue = 1ml, read-out: concentration in liver): 3.77 µM
concentration at 4 h ([6]; plasma, 4 hours post oral 5mg/kg tasquinimod, read-out: concentration in plasma): 5.58 µM
percentage of total drug in plasma ([6]; plasma, 4 hours post oral 5mg/kg tasquinimod): 93+/-6%
Compound: COc1cccc2c1c(O)c(C(=O)N(C)c1ccc(C(F)(F)F)cc1)c(=O)n2C [Tasquinimod]
median progression-free survival [2]: doubles
